Measured values from publication PMC9973354 (mBio, 2022).
Starred links: 1 amine or outer side, 2 acyl side, 3 side chain; linkers in the order of their positions; H or OH if unused. Positions of bridges follow the written chain, without caps; N, C: chain ends. Non-standard residues stand in square brackets, D forms with d. Residues, ends and D or L forms follow the SMILES beside them. ξ: configuration not given here. X1 = O=C([C@@H]1CCN=C2C(N[*:1])=Cc3cc(O)c(O)cc3N21)[*:2]; ξOrn(N(OH)CHO) = NC(CCCN(O)C=O)C(=O)O; Suc = O=C(CCC(=O)[*:2])[*:1]; ξK = NCCCCC(N)C(=O)O; ξS = NC(CO)C(=O)O

Experiments:
[1] = tested on: PA14 ΔfpvA ΔfpvB pHERD20T-fpvA; experiment: Checkerboard assay TS and siderophores, FpvA expressed; type: cell-based, Pseudomonas aeruginosa; conditions: 10:90 + 2% arabinose
From the text: (§1) We investigated this hypothesis by treating the ΔfpvA ΔfpvB mutant complemented with fpvA or fpvB with TS and pyoverdine-Fe^3+. If pyoverdine competes with TS for the same binding site in the transporter, a reduction in TS susceptibility would be expected, as competition would decrease entry of the antibiotic into the cell. TS susceptibility decreased >8-fold with increasing concentrations of pyoverdine-Fe^3+ when FpvA was expressed (see Fig. S2A in the supplemental material).
(§2) Supplementary file : FIG S2 Checkerboard assays of the PA14 ΔfpvA ΔfpvB strain complemented with fpvA and fpvB in trans with TS and siderophores. […] Checkerboards of the PA14 ΔfpvA ΔfpvB pHERD20T-fpvB strain with TS and enterobactin (G), ferrioxamine E (H), and arthrobactin (I). Results are averaged from three independent biological replicates. Cells in the assay were grown in 10:90 + 2% arabinose. Download FIG S2, EPS file, 2.2 MB.
Checkerboards (8 rows by 8 columns) were conducted as previously described in a 96-well plate (Nunc) ([13], [14]). TS at 75× the final concentration dissolved in DMSO was added in columns from bottom to top in increasing concentrations. Siderophores at 75× the final concentration dissolved in DSMO were added from in rows from left to right in increasing concentrations. Four columns were used for vehicle controls (DMSO) and sterile controls. […] Plates were sealed to prevent evaporation and incubated at 37°C overnight in a shaking incubator (200 rpm). The next day, the OD600 was determined with a plate reader (Thermo Scientific) and normalized to percent of growth of the vehicle control (DMSO) after subtracting the OD600 from blank media.

[2] = target: T1, FpvA T660C (Pseudomonas aeruginosa, UniProt P48632, T660C); experiment: Whole-cell fluorescence quenching, FpvA T660C; type: binding; conditions: cells expressing FpvA T660C
T1 construct: expressed in transfected cells; host or cells: P. aeruginosa PA14 ΔfpvA ΔfpvB, plasmid pHERD20T-fpvA T660C, arabinose-induced
From the text: (§3) To determine the affinity of the siderophores for FpvA and FpvB, we adapted the method from Chakravorty et al. to generate a whole-cell sensor where fluorescence quenching serves as an indicator of ligand interaction ([31]). Siderophore binding triggers conformational changes at the extracellular loops of the TBDT (Fig. 3A). Cys substitutions were introduced at the loops and labeled with a fluorescent maleimide dye. When a ligand binds the transporter, the loops fold inward toward the lumen of the barrel, and changes in the chemical environment surrounding the fluorophore lead to quenching ([31], [32]). Fluorescence recovery occurs once the siderophore is taken up and the loop returns to its original conformation.
Cells were cultured overnight in LB with carbenicillin (200 μg/mL) at 37°C with shaking at 200 rpm. […] Cells were harvested by centrifugation for 5 min and 6,000 × g and resuspended in sterile 1× phosphate-buffered saline (PBS) (pH 7.4); 1× PBS was made from a 10× stock (80 g NaCl, 2 g KCl, 26.8 g Na2 HPO4-7H2O, 2.4 g KH2PO4 in 1 L of deionized H2O) with 10 μM Alexa Fluor 594 C5 maleimide for microscopy or fluorescein-5-maleimide for fluorescence quenching and recovery assays and incubated in the dark at room temperature for 30 min on a shaking incubator at 37°C (200 rpm). […]

[3] = target: T2, FpvB R648C (Pseudomonas aeruginosa, UniProt A0A0H2ZFZ5, R648C); experiment: Whole-cell fluorescence quenching, FpvB R648C in ΔfpvA ΔfpvB; type: binding
T2 sequence (A0A0H2ZFZ5 23-802 R648C): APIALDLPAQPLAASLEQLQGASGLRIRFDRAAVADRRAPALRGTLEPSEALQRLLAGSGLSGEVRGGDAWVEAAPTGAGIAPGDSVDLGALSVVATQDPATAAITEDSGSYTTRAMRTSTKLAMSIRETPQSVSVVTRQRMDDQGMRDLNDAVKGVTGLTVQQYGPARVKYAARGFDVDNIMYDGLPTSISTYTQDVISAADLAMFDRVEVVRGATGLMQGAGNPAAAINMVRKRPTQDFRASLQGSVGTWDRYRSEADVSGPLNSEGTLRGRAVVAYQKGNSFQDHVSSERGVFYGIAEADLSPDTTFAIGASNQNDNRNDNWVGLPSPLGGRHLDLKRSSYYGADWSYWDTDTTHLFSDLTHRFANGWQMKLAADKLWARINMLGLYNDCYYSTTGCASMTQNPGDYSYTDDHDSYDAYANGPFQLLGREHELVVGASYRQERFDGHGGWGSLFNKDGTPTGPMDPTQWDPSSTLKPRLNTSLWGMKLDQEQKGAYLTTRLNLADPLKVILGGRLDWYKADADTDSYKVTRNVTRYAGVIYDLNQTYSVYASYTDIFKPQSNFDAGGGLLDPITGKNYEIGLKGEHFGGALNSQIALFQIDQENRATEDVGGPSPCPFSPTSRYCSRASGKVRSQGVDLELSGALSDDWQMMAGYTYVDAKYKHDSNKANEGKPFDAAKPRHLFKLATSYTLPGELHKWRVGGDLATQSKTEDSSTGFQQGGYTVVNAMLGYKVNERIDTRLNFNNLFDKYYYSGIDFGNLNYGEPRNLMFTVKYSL
From the text: as §3
Cells were cultured overnight in LB with carbenicillin (200 μg/mL) at 37°C with shaking at 200 rpm. Cells were subcultured (1:200 dilution) in 10:90 plus 2% arabinose for 4 h without carbenicillin at 37°C with shaking at 200 rpm. […] Excess dye was quenched with 1 mM dithiothreitol (DTT) (Sigma) to stop the reaction. Cells were washed 3× with PBS. For fluorescence recovery assays, cells were incubated with 1× PBS plus 0.4% glucose at 37°C with shaking at 200 rpm. Glucose was prepared as a 20% stock (wt/vol) in 1× PBS and filter sterilized. Cells were spun down and washed 3× with 1× PBS and resuspended in 1× PBS for quenching assays and 1× PBS plus 0.4% glucose for fluorescence recovery assays.
(§4) For fluorescence quenching and recovery assays, cells were diluted to an OD600 of 0.1 for both types of assays, and 148 μL was added into wells of a 96-well black plate (Corning). Fluorescence was recorded for 5 min at 1-min intervals at 37°C (BioTek Neo; excitation, 494 nm; emission, 520 nm). After 5 min, 2 μL of each serial dilution for ferrioxamine-Fe^3+, ferrichrome-Fe^3+, and pyoverdine-Fe^3+ or DMSO for vehicle controls was added to each well. Fluorescence was recorded immediately for quenching assays and for 1 h at 1-min intervals for fluorescence recovery assays. Background fluorescence was subtracted from all fluorescence readings and 1-F/F0 was used to calculate the degree of quenching, where F0 is the initial fluorescence. Kd was calculated using GraphPad Prism using a one-site specific binding model or a two-site model. For fluorescence recovery assays, background was subtracted from all fluorescence readings and F/F0 expressed as a percent of control was plotted versus time.

[4] = target: T2, FpvB R648C; experiment: Whole-cell fluorescence quenching, FpvB R648C in quadruple mutant; type: binding
Description: (§5) Quenching assays with the two xenosiderophores were repeated for the quadruple TBDT mutant expressing WT FpvB, FpvB R191A R648C, or W347V R648C.
(§6) Cells were cultured overnight in LB with carbenicillin (200 μg/mL) at 37°C with shaking at 200 rpm. Cells were subcultured (1:200 dilution) in 10:90 plus 2% arabinose for 4 h without carbenicillin at 37°C with shaking at 200 rpm. Cells were harvested by centrifugation for 5 min and 6,000 × g and resuspended in sterile 1× phosphate-buffered saline (PBS) (pH 7.4); 1× PBS was made from a 10× stock (80 g NaCl, 2 g KCl, 26.8 g Na2 HPO4-7H2O, 2.4 g KH2PO4 in 1 L of deionized H2O) with 10 μM Alexa Fluor 594 C5 maleimide for microscopy or fluorescein-5-maleimide for fluorescence quenching and recovery assays and incubated in the dark at room temperature for 30 min on a shaking incubator at 37°C (200 rpm). Excess dye was quenched with 1 mM dithiothreitol (DTT) (Sigma) to stop the reaction. Cells were washed 3× with PBS. For fluorescence recovery assays, cells were incubated with 1× PBS plus 0.4% glucose at 37°C with shaking at 200 rpm. Glucose was prepared as a 20% stock (wt/vol) in 1× PBS and filter sterilized. Cells were spun down and washed 3× with 1× PBS and resuspended in 1× PBS for quenching assays and 1× PBS plus 0.4% glucose for fluorescence recovery assays.
as §4

[5] = target: T3, FpvB R191A R648C (Pseudomonas aeruginosa, UniProt A0A0H2ZFZ5, R191A/R648C); experiment: Whole-cell fluorescence quenching, FpvB R191A R648C; type: binding
T3 sequence (A0A0H2ZFZ5 23-802 R191A/R648C): T2 sequence (A0A0H2ZFZ5 23-802 R648C)
Description: as §5, §6, §4

[6] = target: T4, FpvB W347V R648C (Pseudomonas aeruginosa, UniProt A0A0H2ZFZ5, R648C/W347V); experiment: Whole-cell fluorescence quenching, FpvB W347V R648C; type: binding
T4 sequence (A0A0H2ZFZ5 23-802 W347V/R648C): T2 sequence (A0A0H2ZFZ5 23-802 R648C)
Description: as §5, §6, §4

[7] = tested on: PA14 ΔfpvA ΔfpvB pHERD20T-fpvB; experiment: Checkerboard assay TS and siderophores, FpvB expressed; type: cell-based, Pseudomonas aeruginosa; conditions: 10:90 + 2% arabinose
From the text: as §1, §2
Checkerboards (8 rows by 8 columns) were conducted as previously described in a 96-well plate (Nunc) ([13], [14]). TS at 75× the final concentration dissolved in DMSO was added in columns from bottom to top in increasing concentrations. […] The next day, the OD600 was determined with a plate reader (Thermo Scientific) and normalized to percent of growth of the vehicle control (DMSO) after subtracting the OD600 from blank media.

[8] = target: T2, FpvB R648C; experiment: Fluorescence recovery assay (siderophore uptake by FpvB); type: cell-based; conditions: siderophore at 1/2 Kd (1/2 Kd2 for ferrioxamine B), recorded for 1 h
Description: Cells were equilibrated for 5 min prior to introduction of the siderophores. Fluorescence was recorded every min for 1 h. Carbonyl cyanide m-chlorophenylhydrazone (CCCP) was used as a control to inhibit fluorescence recovery through dissipation of the proton motive force (PMF) ([2], [3]), which is required for uptake.
as §6, with “Glucose was prepared as a 20% stock (wt/vol) in 1× PBS and filter sterilized.” left out
as §4, with “After 5 min, 2 μL of each serial dilution for ferrioxamine-Fe^3+, ferrichrome-Fe^3+, and pyoverdine-Fe^3+ or DMSO for vehicle controls was added to each well.” left out, “For fluorescence recovery assays, background was subtracted from all fluorescence readings and F/F0 expressed as a percent of control was plotted versus time.” left out

[9] = FpvB R648C in quadruple mutant, two-site model

T1 sequence (P48632 44-815 T660C): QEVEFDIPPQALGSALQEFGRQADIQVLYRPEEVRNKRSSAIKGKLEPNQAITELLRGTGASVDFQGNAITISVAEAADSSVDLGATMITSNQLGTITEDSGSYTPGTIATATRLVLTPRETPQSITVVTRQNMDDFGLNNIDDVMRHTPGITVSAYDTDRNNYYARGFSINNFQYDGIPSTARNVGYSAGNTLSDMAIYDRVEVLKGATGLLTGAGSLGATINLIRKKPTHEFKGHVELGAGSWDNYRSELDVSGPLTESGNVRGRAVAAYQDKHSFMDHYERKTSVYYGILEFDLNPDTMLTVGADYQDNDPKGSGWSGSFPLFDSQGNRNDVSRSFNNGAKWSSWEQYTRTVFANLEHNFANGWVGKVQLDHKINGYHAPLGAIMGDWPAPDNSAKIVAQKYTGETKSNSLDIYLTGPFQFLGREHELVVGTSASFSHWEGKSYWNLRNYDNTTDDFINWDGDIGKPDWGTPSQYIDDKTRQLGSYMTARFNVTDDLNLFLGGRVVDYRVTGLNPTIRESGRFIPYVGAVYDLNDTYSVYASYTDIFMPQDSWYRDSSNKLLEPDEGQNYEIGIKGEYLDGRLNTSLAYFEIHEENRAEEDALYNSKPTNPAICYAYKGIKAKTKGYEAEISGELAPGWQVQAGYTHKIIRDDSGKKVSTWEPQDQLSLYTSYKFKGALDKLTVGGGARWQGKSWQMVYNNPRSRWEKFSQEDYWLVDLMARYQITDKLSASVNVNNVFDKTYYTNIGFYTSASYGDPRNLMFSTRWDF

With `CC(=O)N(O)CCCCCNC(=O)CC(O)(CC(=O)NCCCCCN(O)C(C)=O)C(=O)O` [arthrobactin] the “effect of siderophore on TS susceptibility” value (shortened to “effect of siderophore”) [1] was “None of those siderophores reduced TS susceptibility”.

`O=C(N[C@H]1COC(=O)[C@@H](NC(=O)c2cccc(O)c2O)COC(=O)[C@@H](NC(=O)c2cccc(O)c2O)COC1=O)c1cccc(O)c1O` [enterobactin] was tested, and the “effect of siderophore” value [1] was “None of those siderophores reduced TS susceptibility”.

For `CC(=O)N([O-])CCCCCNC(=O)CCC(=O)N([O-])CCCCCNC(=O)CCC(=O)N([O-])CCCCCN.[Fe+3]` [ferrioxamine B-Fe^3+], the fluorescence quenching [2] was “No quenching”, the Kd1 ([3]; FpvB R648C in ΔfpvA ΔfpvB, two-site model, higher-affinity site) was 1.0 × 10^2 ± 50 ng/mL and the Kd2 ([3]; FpvB R648C in ΔfpvA ΔfpvB, two-site model, lower-affinity site) was 270000 ± 47000 ng/mL. The Kd1 [4, 9] was 1.0x10^2 ± 59 ng/mL, the Kd2 [4, 9] was 370000 ± 95000 ng/mL and the Kd ([5]; FpvB R191A R648C, one-site model) was 300 ± 43 µg/mL. It also gave a Kd ([6]; FpvB W347V R648C, one-site model) of 490 ± 68 µg/mL.

`NCCCCC(NC(=O)C(CO)NC(=O)[C@@H]1CCN=C2C(NC(=O)CCC(=O)O)=Cc3cc(O)c(O)cc3N21)C(=O)NCC(=O)NC(CCCN(O)C=O)C(=O)NC1CCCCNC(=O)C(CO)NC(=O)C(CCCN(O)C=O)NC1=O.[Fe+3]` (stereo partly shown) [pyoverdine-Fe^3+] (Suc-[X1][ξS][ξK]G[ξOrn(N(OH)CHO)][ξK][ξOrn(N(OH)CHO)][ξS]; lactam 6-C) was tested, and the “effect of siderophore” value [7] was “did not impact TS susceptibility”, the “Kd for FpvB relative to FpvA” value ([3]; higher for FpvB) was 200 fold and the fluorescence recovery [8] was “No recovery”.

ferrichrome-Fe^3+ was tested, and the fluorescence quenching [2] was ~ 20%, the Kd ([4]; FpvB R648C in ΔfpvA ΔfpvB ΔfiuA ΔfoxA) was 0.0085 ± 0.0008 µg/mL and the “increase of Kd by the mutation” value ([5]; R191A versus FpvB R648C) was 76 fold. For the same molecule, the “increase of Kd by the mutation” value ([6]; W347V versus FpvB R648C) was greater than 76 fold.
